Data on 21 compounds can be found in US9273057B2 (Bristol-Myers Squibb Company, priority 2012, dated 2016).

The target in this assay is CK2A1 (CK2α/β) (Homo sapiens, UniProt P68400). Kind of assay: CK2 kinase assay, CK2A1 (CK2α/β). Type of assay: biochemical. To be noted: Table A; read-out: CK2A1 (CK2α/β) (IC50).
Sequence of CK2A1 (CK2α/β) (P68400 whole entry, species assumed): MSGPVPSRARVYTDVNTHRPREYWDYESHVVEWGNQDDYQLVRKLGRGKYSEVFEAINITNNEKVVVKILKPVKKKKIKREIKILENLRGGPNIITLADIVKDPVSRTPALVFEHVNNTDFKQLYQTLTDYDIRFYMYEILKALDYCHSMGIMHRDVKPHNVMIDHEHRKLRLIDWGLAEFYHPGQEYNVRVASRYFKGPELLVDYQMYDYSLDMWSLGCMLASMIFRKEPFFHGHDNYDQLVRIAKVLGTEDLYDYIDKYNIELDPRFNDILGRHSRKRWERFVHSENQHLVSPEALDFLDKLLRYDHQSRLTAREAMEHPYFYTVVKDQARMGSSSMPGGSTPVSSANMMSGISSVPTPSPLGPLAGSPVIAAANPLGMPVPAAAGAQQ
Sequence of CK2A1 (CK2α/β) (P67870 whole entry partner, species assumed): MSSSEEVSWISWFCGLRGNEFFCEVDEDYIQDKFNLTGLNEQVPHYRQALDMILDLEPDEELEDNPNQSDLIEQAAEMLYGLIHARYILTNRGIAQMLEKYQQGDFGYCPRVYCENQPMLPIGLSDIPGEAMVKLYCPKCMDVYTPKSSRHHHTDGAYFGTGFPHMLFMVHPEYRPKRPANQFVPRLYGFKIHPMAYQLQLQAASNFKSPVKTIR
Turning to `N#Cc1cc(Nc2nc(NC3CC3)c3ncc(C#N)n3n2)c(Cl)c(N2CCN(CC3CCCCO3)CC2)c1` (stereo not drawn) [Example 609, 2-({2-chloro-5-cyano-3-[4-(oxan-2-ylmethyl)piperazin-1-yl]phenyl}amino)-4-(cyclopropylamino)imidazo [2,1-f][1,2,4]triazine-7-carbonitrile], the IC50 came to 1.39 nM.
With `CCNc1nc(Nc2cc(C#N)cc(N3CCN([C@H]4C[C@@H](O)C4)CC3)c2Cl)nn2c(C#N)cnc12` [Example 610, 2-[(2-chloro-5-cyano-3-{4-[(1a,3s)-3-hydroxycyclobutyl]piperazin-1-yl}phenyl)amino]-4-(ethylamino)imidazo[2,1-f][1,2,4]triazine-7-carbonitrile], the IC50 is 1.08 nM.
Turning to `CNC(=O)CN1CCN(c2cc(C#N)cc(Nc3nc(NC4CC4)c4ncc(C#N)n4n3)c2Cl)CC1` [Example 611, 2-[4-(2-chloro-5-cyano-3-{[7-cyano-4-(cyclopropylamino)imidazo [2,1-f][1,2,4]triazin-2-yl]amino}phenyl)piperazin-1-yl]-N-methylacetamide], the IC50 worked out at 0.65 nM.
As to `N#Cc1cc(Nc2nc(NC3CC3)c3ncc(C#N)n3n2)c(Cl)c(N2CCN(C3CNC3)CC2)c1` [Example 612, 2-({3-[4-(azetidin-3-yl)piperazin-1-yl]-2-chloro-5-cyanophenyl}amino)-4-(cyclopropylamino)imidazo [2,1-f][1,2,4]triazine-7-carbonitrile], the IC50 was determined as 0.43 nM.
The figure for `CCNc1nc(Nc2cc(C#N)cc(N3CCN([C@H]4C[C@H](O)C4)CC3)c2Cl)nn2c(C#N)cnc12` [Example 613, 2-[(2-chloro-5-cyano-3-{4-[(1r,3r)-3-hydroxycyclobutyl]piperazin-1-yl}phenyl)amino]-4-(ethylamino)imidazo [2,1-f][1,2,4]triazine-7-carbonitrile] is 1.62 nM; for `N#Cc1cc(Nc2nc(NC3CC3)c3ncc(C#N)n3n2)c(Cl)c(N2CCN(C3CN(CC(O)CF)C3)CC2)c1` (stereo not drawn) [Example 614, 2-[(2-chloro-5-cyano-3-{4-[1-(3-fluoro-2-hydroxypropyl)azetidin-3-yl]piperazin-1-yl}phenyl)amino]-4-(cyclopropylamino)imidazo [2,1-f][1,2,4]triazine-7-carbonitrile] it is 2.5 nM.
In the case of `N#Cc1cc(NCCO)c(Cl)c(Nc2nc(NC3CC3)c3ncc(C#N)n3n2)c1` [Example 615, 2-((2-chloro-5-cyano-3-((2-hydroxyethyl)amino)phenyl)amino)-4-(cyclopropylamino)imidazo[2,1-f][1,2,4]triazine-7-carbonitrile], the IC50 is 0.18 nM.
Take `COCCOCCNc1cc(C#N)cc(Nc2nc(NC3CC3)c3ncc(C#N)n3n2)c1Cl` [Example 616, 2-((2-chloro-5-cyano-3-((2-(2-methoxyethoxy)ethyl)amino)phenyl)amino)-4-(cyclopropylamino)imidazo[2,1-f][1,2,4]triazine-7-carbonitrile]: the IC50 worked out at 0.86 nM.
`N#Cc1cc(NCCCO)c(Cl)c(Nc2nc(NC3CC3)c3ncc(C#N)n3n2)c1` [Example 617, 2-((2-chloro-5-cyano-3-((3-hydroxypropyl)amino)phenyl)amino)-4-(cyclopropylamino)imidazo[2,1-f][1,2,4]triazine-7-carbonitrile]: the IC50 is 0.34 nM.
For the compound `CN1CCN(c2cc(C#N)cc(Nc3nc(NC4CC4)c4ncc(C#N)n4n3)c2Cl)C(=O)C1` [Example 618, 2-((2-chloro-5-cyano-3-(4-methyl-2-oxopiperazin-1-yl)phenyl)amino)-4-(cyclopropylamino)imidazo[2,1-f][1,2,4]triazine-7-carbonitrile], the IC50 is 2.07 nM.
The figure for `CN(CCO)CC(=O)Nc1cc(C#N)cc(Nc2nc(NC3CC3)c3ncc(C#N)n3n2)c1Cl` [Example 619, N-(2-chloro-5-cyano-3-((7-cyano-4-(cyclopropylamino)imidazo[2,1-f][1,2,4]triazin-2-yl)amino)phenyl)-2-((2-hydroxyethyl)(methyl)amino)acetamide] is 1.66 nM; for `CN(C)CC(=O)Nc1cc(C#N)cc(Nc2nc(NC3CC3)c3ncc(C#N)n3n2)c1Cl` [Example 620, N-(2-chloro-5-cyano-3-((7-cyano-4-(cyclopropylamino)imidazo[2,1-f][1,2,4]triazin-2-yl)amino)phenyl)-2-(dimethylamino)acetamide] it is 1.77 nM.
As to `N#Cc1cc(NC(=O)CN2CCOCC2)c(Cl)c(Nc2nc(NC3CC3)c3ncc(C#N)n3n2)c1` [Example 621, N-(2-chloro-5-cyano-3-((7-cyano-4-(cyclopropylamino)imidazo[2,1-f][1,2,4]triazin-2-yl)amino)phenyl)-2-morpholinoacetamide], the IC50 came to 1.62 nM.
In the case of `N#Cc1cc(Nc2nc(NC3CC3)c3ncc(C#N)n3n2)c(Cl)c(N2CCN(CC(N)=O)CC2=O)c1` [Example 623, 2-(4-(2-chloro-5-cyano-3-((7-cyano-4-(cyclopropylamino)imidazo[2,1-f][1,2,4]triazin-2-yl)amino)phenyl)-3-oxopiperazin-1-yl)acetamide], the IC50 stood at 3.05 nM.
Take `CNC(=O)CN1CCN(c2cc(C#N)cc(Nc3nc(NC4CC4)c4ncc(C#N)n4n3)c2Cl)C(=O)C1` [Example 625, 2-(4-(2-chloro-5-cyano-3-((7-cyano-4-(cyclopropylamino)imidazo[2,1-f][1,2,4]triazin-2-yl)amino)phenyl)-3-oxopiperazin-1-yl)-N-methylacetamide]: the IC50 was 5.8 nM.
Regarding `N#Cc1cc(Nc2nc(NC3CC3)c3ncc(C#N)n3n2)c(Cl)c(N2CCCOC2=O)c1` [Example 627, 2-((2-chloro-5-cyano-3-(2-oxo-1,3-oxazinan-3-yl)phenyl)amino)-4-(cyclopropylamino)imidazo[2,1-f][1,2,4]triazine-7-carbonitrile], the IC50 came to 0.83 nM.
`N#Cc1cc(Nc2nc(NC3CC3)c3ncc(C#N)n3n2)c(Cl)c(N2CCNCC2=O)c1` [Example 628, 2-((2-chloro-5-cyano-3-(2-oxopiperazin-1-yl)phenyl)amino)-4-(cyclopropylamino)imidazo[2,1-f][1,2,4]triazine-7-carbonitrile]: the IC50 was 9.85 nM.
For the compound `CN1CCN(c2cc(C#N)cc(Nc3nc(NC4CC4)c4ncc(C#N)n4n3)c2)C(=O)C1` [Example 629, 2-((3-cyano-5-(4-methyl-2-oxopiperazin-1-yl)phenyl)amino)-4-(cyclopropylamino)imidazo[2,1-f][1,2,4]triazine-7-carbonitrile], the IC50 worked out at 6 nM.
For the compound `CCNc1nc(Nc2cc(C#N)cc(NCCO)c2Cl)nn2c(C#N)cnc12` [Example 630, 2-((2-chloro-5-cyano-3-((2-hydroxyethyl)amino)phenyl)amino)-4-(ethylamino)imidazo[2,1-f][1,2,4]triazine-7-carbonitrile], the IC50 came out at 0.68 nM.
For the compound `COc1ccc(CN2CCN(c3cc(C#N)cc(Nc4nc(NC5CC5)c5ncc(C#N)n5n4)c3Cl)C(=O)C2)cc1` [Example 631, 2-((2-chloro-5-cyano-3-(4-(4-methoxybenzyl)-2-oxopiperazin-1-yl)phenyl)amino)-4-(cyclopropylamino)imidazo[2,1-f][1,2,4]triazine-7-carbonitrile], the IC50 was found to be 1.1 nM.
For `N#Cc1cc2c(c(Nc3nc(NC4CC4)c4ncc(C#N)n4n3)c1)NCCOCC(=O)N2` [Example 632, 11-((7-cyano-4-(cyclopropylamino)imidazo[2,1-f][1,2,4]triazin-2-yl)amino)-6-oxo-1,2,3,5,6,7-hexahydrobenzo[e][1,4,7]oxadiazonine-9-carbonitrile], the IC50 was determined as 1.45 nM.
